Source: patent US20240315219A1, “ANIMAL MODEL FOR DISEASES ASSOCIATED WITH ABSENCE OR REDUCTION OF SOCIAL DOMINANCE, AND PHARMACEUTICAL COMPOSITION FOR PREVENTING OR TREATING DISEASES” (ADEL, Inc., priority 2021, published 2024)

Experiments:
[1] = tested on: C57BL/6 mice; assay: Tube dominance test, lowest-ranked mouse in C57BL/6 mouse group; assay type: in vivo; details: lowest-ranked C57BL/6 mouse, intracerebroventricular via osmotic pump
Experimental: (§1) The apparatus for the tube dominance test was made of a transparent plastic tube with a length of 30 cm and an inner diameter of 2.5 cm. To allow the mice to adapt to passing through the inside of the tube, the respective mice were trained to pass across the tube alternately on both sides for two or three consecutive days. During the training period, care was taken to ensure that the mice passed through the tube as naturally as possible without causing stress. This test was performed after identifying that all mice could freely pass through the tube without stress.
During the dominance test period, a total of 2 mice, one at each end of the tube, were placed to meet in the middle of the tube. In a case where one mouse pushed the other mouse out of the tube, one (1) winning point was earned. The test was repeated three times. For example, in a case where one mouse earned 2 or 3 winning points, the mouse was considered a winner and the other mouse was considered a loser. For the mice housed in the same cage, the tube test was performed on three mice in turn to determine social dominance ranking. For example, for mouse no. 1, the tube test was performed with mouse nos. 2 and 3. In a case where mouse no. 1 wins both mice, it is ranked first. Meanwhile, in a case where mouse no. 2 loses to mouse no. 1 and wins mouse no. 3, it is ranked second. In the two tests, mouse no. 3 is ranked third since it loses to both mice. For each test, win or loss was determined by winning points.
(§2) First, starting at 1 month of age, the CRTC3 KO mice and the WT mice were housed in one group and raised together for 2 months. This allowed social ranking to be naturally formed among the mice in the same group. To determine changes in ranking of the mice in the group, social dominance ranking was evaluated by a tube dominance test daily for 15 days starting at 3 months of age. The respective mice in the group were tested in turn, and dominance ranking of the mice in the group was determined based on their winning points. […]

[2] = tested on: CRTC3 KO mice; assay: Tube dominance test, CRTC3 KO mice housed with WT mice; assay type: in vivo, mouse
Experimental: as §1
During the dominance test period, a total of 2 mice, one at each end of the tube, were placed to meet in the middle of the tube. In a case where one mouse pushed the other mouse out of the tube, one (1) winning point was earned. The test was repeated three times. […] For each test, win or loss was determined by winning points. […]
as §2, with “This allowed social ranking to be naturally formed among the mice in the same group.” left out

[3] = tested on: wild-type rats; assay: Brain fMRI, resting-state functional connectivity (rsFC) in wild-type rats; assay type: in vivo, rat; details: SD rats, vs PBS group
Experimental: To identify which regions of the brain are affected by administration of AREG-EGF, fMRI was performed on wild-type rats injected with AREG-EGF. The rats having received PBS as a control and the rats having received AREG-EGF were imaged with fMRI one month later, in which interaction signals between various regions in the brain were checked. Specifically, the rats, which are SD (Spraque Dawley) rat species, were eight, 5- to 6-week-old male rats purchased from Orient Bio. AREG-EGF was administered to the rats by intracerebroventricular injection (ICV) on Weeks 6 to 7 after the purchase, and fMRI imaging was performed 21 days after the administration. The fMRI imaging was performed in such a way that first imaging was performed on an anesthetized rat under normal conditions (pre-state), and then fMRI re-imaging was performed on the same rat by placing cotton soaked in the urine of another rat, which it had never encountered, so that the rat being imaged can sniff the cotton (post-state). For rodents, social responses such as social identification occur through urine marking done by the other individuals. Thus, urine from an unfamiliar rat was used to elicit social responses. For specific methods of administering AREG-EGF and performing MRI analysis, see Experimental Examples 2.1 and 3. […]

Row | Substance | cages in which ranking of the lowest-ranked mouse increased after administration [1] [%] | cages in which changes (increase) in social dominance ranking were observed after administration ([2]; CRTC3 KO mice with low ranking, housed with WT mice, intracerebroventricular via osmotic pump) [%] | winning points after vs before administration ([2]; CRTC3 KO mice, ICV osmotic pump) | rsFC between PFC and PC (average z-transformed correlation coefficient) ([3]; ICV osmotic pump, fMRI 21 days after) | rsFC seed-correlation spatial map, seed Cg1/2 (24b′/24a′) ([3]; ICV)
1 | AREG-EGF: Peptide of the EGF domain of amphiregulin, SEQ ID NO: 13, from Peptron (KKNPCNAEFQNFCIHGECKYIEHLEAVTCKCQQEYFGERCGEK; AREG-EGF Peptide) | 80 | 50 | changes in winning points and increases in tube test ranking | significantly high activity | significantly enhanced region was observed in PC
2 | AREG-HB: Peptide of the heparin-binding domain of amphiregulin, SEQ ID NO: 14, from Peptron; control (SVRVEQVVKPPQNKTESENTSDKPKRKKKGGKNGKNRRNRK; AREG-HB Peptide) [reference compound] | 10 |  |  |  | 
3 | mEGF: Recombinant mouse EGF from R&D Systems, SEQ ID NO: 12; control (NSYPGCPSSYDGYCLNGGVCMHIESLDSYTCNCVIGYSGDRCQTRDLRWWELR; Mouse EGF Protein; listed as Mus musculus) [reference compound] | 0 |  |  |  | 
